Test results taken from patent US20240018153A1, “BENZENESULFONAMIDE DERIVATIVES AND USES THEREOF” (2692372 ONTARIO, INC., priority 2020, published 2024).

Assays:
[1] = biological target: T1, BTK (Homo sapiens (Human), UniProt Q06187); assay: Ramos RA1 cell lysis and immunoassay, phospho-BTK (Y223) inhibition; assay type: cell-based; design: key: X: BTK bound and autophosphoration of BTK inhibited in cells; settings: RAMOS cells, compound concentration 1 μM
Method in brief: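 Ramos RA1 cells treated with compound or DMSO for 24 h at 37° C., lysed in RIPA, analysed by Simple Western. Total BTK normalised to β-actin, pBTK (Y223) to total-protein reagent; both expressed relative to DMSO control.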

[2] = biological target: EGFR (Homo sapiens (Human), UniProt P00533); assay: A549 cell lysis and immunoassay, phospho-EGFR (Y1068) inhibition; assay type: cell-based; design: key: X: EGFR bound and autophosphoration of EGFR inhibited in cells; settings: A549 cells
Procedure: A549 cells (ATCC) were cultured in Dulbecco's Modified Eagle's Medium (DMEM) (Wisent) supplemented with 10% FBS and 1% penicillin/streptomycin. Cells were seeded in 6-well plates at 530,000 cells/well and incubated at 37° C., 5% CO2 for 16 hours. Cells were starved in DMEM containing 1% FBS for 4 hours before they were treated with the indicated concentrations of compound or DMSO alone and incubated at 37° C., 5% CO2 for 24 hours. Prior to cell harvest and lysis, 50 ng/ml human epidermal growth factor (hEGF) (Sigma) was added to the cells and incubated at 37° C., 5% CO2 for 10 minutes. Conditioned media was discarded, and adherent cells were washed with PBS before they were scraped on ice. Cell suspensions were centrifugated at 2,000 RPM for 5 minutes at 4° C. and supernatants were discarded. Cell pellets were resuspended with 1× RIPA buffer (Millipore) and incubated on ice for 15 minutes. Protein lysates were extracted by centrifugating at 20,000 RPM for 20 minutes at 4° C. Proteins were separated and total EGFR protein levels were quantified by Simple Western Immunoassay (ProteinSimple) using the Protein Normalization Assay Module for Jess according to the manufacturer's protocol, using a protein concentration of 0.125 μg/μl and an antibody targeting EGFR (clone #EP38Y, Abcam) diluted to 1:400. Phosphorylated EGFR protein levels were quantified with the same assay using a protein concentration of 1 μg/μl and an antibody targeting pEGFR (Y1068) (Cell Signalling) diluted to 1:25. EGFR and phosphorylated EGFR levels were normalized to the Jess Protein Normalization Reagent loading control and subsequently to the DMSO control.

[3] = biological target: T1, BTK; assay: Time-dependent inhibition of BTK (HTRF); assay type: biochemical; settings: pre-incubation 0-45 min; for Time-dependent inhibition of BTK: product formation versus pre-incubation time: mono-exponential decay fit
Procedure: For the time-dependent inhibition experiments, the activity of BTK kinases was monitored using a HTRF® KinEASE-TK kit from Cisbio (62TK0PEC) as described above. […] The pre incubation times were 0, 1, 3, 5, 10, 15, 30 and 45 min. After the preincubation, reaction was initiated by adding biotinylated substrate and ATP and the reaction was allowed to proceed for 45 min. […] After 60 min of incubation, the fluorescence emission was measured at 620 nm and 665 nm. The ratio of Em 665 nm to Em 620 nm was proportional to the amount of substrate phosphorylated by the kinase. Product formation vs pre-incubation time data were fitted to a one phase exponential decay equation using GraphPad Prism. The same product formation vs inhibitor concentration data were also fitted to a log(antagonist) vs. response—Variable slope equation in GraphPad Prism to provide IC50 values at different pre incubation times.

[4] = biological target: T1, BTK; assay: Ramos RA1 cell lysis and immunoassay, total BTK degradation; assay type: cell-based; design: key to % BTK degradation (RAMOS, 24 h): Y: BTK bound in cells and BTK degradation occurred; concentration or dose not given beside the values; settings: RAMOS cells
Procedure: Ramos RA 1 cells (ATCC) were cultured in RPMI-1640 media (Wisent) supplemented with 10% heat-inactivated FBS and 1% penicillin/streptomycin. Cells were seeded in 6-well plates at 1.71×10^6 cells/well and incubated at 37° C., 5% CO2 for 16 hours. Cells were treated with compound at the indicated concentrations or DMSO alone and incubated at 37° C., 5% CO2 for 24 hours. Cell suspensions were centrifugated at 1,400-1,600 RPM for 5 minutes at room temperature and supernatants were discarded. Cell pellets were resuspended with 1× RIPA buffer (Millipore) and incubated on ice for 15 minutes. Protein lysates were extracted by centrifugating at 20,000 RPM for 20 minutes at 4° C. Proteins were separated and total BTK protein levels were quantified by Simple Western Immunoassay (ProteinSimple) using the 12-230 kDa Jess Separation Module according to the manufacturer's protocol, using a protein concentration of 0.25 μg/μl and antibodies targeting BTK (clone #D3H5, Cell Signalling) and β-Actin (clone #AC-15, Santa Cruz) diluted to 1:400 and 1:10, respectively, where the latter was used as a loading control. An equal ratio of rabbit and mouse HRP-conjugated secondary antibodies was used for detection. BTK protein levels were quantified relative to S-Actin loading levels and subsequently normalized to the DMSO control. Phosphorylated BTK levels were quantified using the Protein Normalization Assay Module for Jess (ProteinSimple) according to the manufacturer's protocol, using a protein concentration of 1.5 μg/μl and an antibody targeting pBTK (Y223) (Cell Signalling) diluted to 1:50. Phosphorylated BTK levels were quantified relative to the Protein Normalization Reagent and subsequently normalized to the DMSO control.

[5] = biological target: T1, BTK; assay: Jump dilution experiment, BTK; assay type: biochemical; settings: 1.5-h incubation, 142 nM BTK, 10×IC50 compound, 100-fold dilution
Procedure: Sample containing only DMSO vehicle was used as a positive (full activity) control while sample with no enzyme was used as a negative (zero activity) control. After the preincubation, the mixture was diluted 100-fold into a reaction mixture containing 1 uM biotinylated substrate and 28 uM ATP and the reaction was allowed to proceed for various time points (2, 5, 10, 15, 20, 30, 45 and 60 min), at which the reaction was terminated by adding 1 ul of 0.5 M EDTA. 62.5 nM SA-XL665 and 100-fold diluted europium labelled antibody (Eu-Ab), diluted in 1× detection buffer, was added as detection mixture. After 60 min of incubation, the fluorescence emission was measured at 620 nm and 665 nm. The ratio of Em 665 nm to Em 620 nm was proportional to the amount of substrate phosphorylated by the kinase.

Chain of EGFR (P00533 25-1210): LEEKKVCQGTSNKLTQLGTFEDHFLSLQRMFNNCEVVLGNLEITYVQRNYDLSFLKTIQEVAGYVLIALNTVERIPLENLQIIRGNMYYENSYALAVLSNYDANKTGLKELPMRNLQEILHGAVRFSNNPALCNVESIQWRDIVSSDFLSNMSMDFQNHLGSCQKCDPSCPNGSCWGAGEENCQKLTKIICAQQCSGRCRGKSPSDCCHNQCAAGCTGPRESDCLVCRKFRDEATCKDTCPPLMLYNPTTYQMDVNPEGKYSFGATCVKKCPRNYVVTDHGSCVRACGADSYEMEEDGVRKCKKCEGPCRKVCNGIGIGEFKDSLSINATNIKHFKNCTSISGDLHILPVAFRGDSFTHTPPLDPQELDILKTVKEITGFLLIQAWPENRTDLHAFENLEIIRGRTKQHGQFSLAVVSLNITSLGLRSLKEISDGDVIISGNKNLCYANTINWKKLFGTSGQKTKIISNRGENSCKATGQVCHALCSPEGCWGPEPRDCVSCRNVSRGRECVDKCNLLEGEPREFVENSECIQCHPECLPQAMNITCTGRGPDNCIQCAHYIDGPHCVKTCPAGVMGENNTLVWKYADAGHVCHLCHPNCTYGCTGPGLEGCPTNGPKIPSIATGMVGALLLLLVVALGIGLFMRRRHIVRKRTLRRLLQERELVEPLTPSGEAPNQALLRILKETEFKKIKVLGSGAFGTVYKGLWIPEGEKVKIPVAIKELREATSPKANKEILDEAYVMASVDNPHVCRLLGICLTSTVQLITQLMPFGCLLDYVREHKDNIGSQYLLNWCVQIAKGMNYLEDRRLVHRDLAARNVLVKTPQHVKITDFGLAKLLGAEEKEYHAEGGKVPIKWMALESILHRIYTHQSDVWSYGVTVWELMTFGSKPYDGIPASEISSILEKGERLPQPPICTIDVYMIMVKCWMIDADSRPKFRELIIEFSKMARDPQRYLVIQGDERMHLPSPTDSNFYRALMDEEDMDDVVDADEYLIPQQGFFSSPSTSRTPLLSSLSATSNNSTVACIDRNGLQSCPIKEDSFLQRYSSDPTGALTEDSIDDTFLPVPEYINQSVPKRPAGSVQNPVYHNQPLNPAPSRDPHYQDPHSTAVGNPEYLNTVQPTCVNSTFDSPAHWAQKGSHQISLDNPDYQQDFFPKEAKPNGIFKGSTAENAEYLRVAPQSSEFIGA
T1 sequence (Q06187 whole entry): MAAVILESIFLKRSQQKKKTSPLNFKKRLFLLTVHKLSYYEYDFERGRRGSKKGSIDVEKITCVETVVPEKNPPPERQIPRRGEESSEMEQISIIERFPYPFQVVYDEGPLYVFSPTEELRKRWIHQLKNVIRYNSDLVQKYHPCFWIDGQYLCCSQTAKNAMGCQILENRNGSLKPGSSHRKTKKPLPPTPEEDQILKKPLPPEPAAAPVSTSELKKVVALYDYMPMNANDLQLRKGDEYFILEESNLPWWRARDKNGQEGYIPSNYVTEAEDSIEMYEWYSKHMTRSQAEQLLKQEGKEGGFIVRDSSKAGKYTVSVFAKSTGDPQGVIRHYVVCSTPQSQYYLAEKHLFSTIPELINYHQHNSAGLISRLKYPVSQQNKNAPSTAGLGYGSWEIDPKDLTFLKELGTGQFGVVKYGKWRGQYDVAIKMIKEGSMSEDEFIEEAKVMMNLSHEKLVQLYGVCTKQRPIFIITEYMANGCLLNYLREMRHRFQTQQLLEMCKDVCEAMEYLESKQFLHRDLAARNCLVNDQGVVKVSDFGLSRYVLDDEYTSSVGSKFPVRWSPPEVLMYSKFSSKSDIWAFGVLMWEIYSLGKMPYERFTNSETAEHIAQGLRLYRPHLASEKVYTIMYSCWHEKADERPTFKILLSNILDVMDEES

pBTK inhibition (RAMOS, 24 h) [1]	pEGFR inhibition (A549, 1 μM, 24 h) [2]	% BTK degradation (RAMOS, 24 h) [4]	residual activity of BTK after jump dilution, relative to enzyme incubated with DMSO alone [5]	pEGFR inhibition (A549, compound concentration, 24 h) ([2]; compound concentration 10 μM)	pEGFR inhibition (A549, compound concentration, 24 h) ([2]; compound concentration 5 μM)	SMILES	Time-dependent inhibition of BTK: product formation versus pre-incubation time [3]	Time-dependent inhibition of BTK: IC50 values versus pre-incubation time [3]
X	X	Y	less than 1%			CS(=O)(=O)c1c(F)c(F)c(F)c(F)c1C(=O)NCCn1nc(-c2ccc(Oc3ccccc3)cc2)c2c(N)ncnc21 [Compound I-38, N-(2-(4-amino-3-(4-phenoxyphenyl)-1H-pyrazolo[3,4-d]pyrimidin-1-yl)ethyl)-2,3,4,5-tetrafluoro-6-(methylsulfonyl)benzamide]	concentration-dependent first order loss of enzyme activity	decrease as pre-incubation times increase
X	X	Y		X		CS(=O)(=O)c1c(F)c(F)c(F)c(F)c1CNCCNc1ncnc2[nH]ccc12 [Compound I-50, N^1-(7H-pyrrolo[2,3-d]pyrimidin-4-yl)-N2-(2,3,4,5-tetrafluoro-6-(methylsulfonyl)benzyl) ethane-1,2-diamine]		
X	X	Y	less than 1%			Nc1ncnc2c1c(-c1ccc(Oc3ccccc3)cc1)nn2CCCNC(=O)c1c(F)c(F)c(F)c(F)c1S(N)(=O)=O [Compound I-34, N-(3-(4-amino-3-(4-phenoxyphenyl)-1H-pyrazolo[3,4-d]pyrimidin-1-yl)propyl)-2,3,4,5-tetrafluoro-6-sulfamoylbenzamide]	concentration-dependent first order loss of enzyme activity	decrease as pre-incubation times increase
X	X	Y		X		C[S+]([O-])c1c(F)c(F)c(F)c(F)c1C(=O)N1CCC[C@@H](n2nc(-c3ccc(Oc4ccccc4)cc3)c3c(N)ncnc32)C1 (stereo partly drawn) [Compound I-36, ((R)-3-(4-amino-3-(4-phenoxyphenyl)-1H-pyrazolo[3,4-d]pyrimidin-1-yl)piperidin-1-yl)(2,3,4,5-tetrafluoro-6-(methylsulfinyl)phenyl)methanone]		
X	X	Y		X		C[S+]([O-])c1c(F)c(F)c(F)c(F)c1C(=O)Nc1cc2c(Nc3ccc(F)c(Cl)c3)ncnc2cc1OC1CCOC1 (stereo not drawn) [Compound I-3]		
X	X	Y		X		Nc1ncnc2c1c(-c1ccc(Oc3ccccc3)cc1)nn2CCNC(=O)c1c(F)c(F)c(F)c(F)c1S(N)(=O)=O [Compound I-42, N-(2-(4-amino-3-(4-phenoxyphenyl)-1H-pyrazolo[3,4-d]pyrimidin-1-yl)ethyl)-2,3,4,5-tetrafluoro-6-sulfamoylbenzamide]		
X	X	Y			X	CS(=O)(=O)c1c(F)c(F)c(F)c(F)c1C(=O)NCCCn1nc(-c2ccc(Oc3ccccc3)cc2)c2c(N)ncnc21 [Compound I-39, N-(3-(4-amino-3-(4-phenoxyphenyl)-1H-pyrazolo[3,4-d]pyrimidin-1-yl)propyl)-2,3,4,5-tetrafluoro-6-(methylsulfonyl)benzamide]		
X	X	Y				COCCOc1ccc(Nc2ncc(F)c(Nc3cccc(NC(=O)c4c(F)c(F)c(F)c(F)c4[S@+](C)[O-])c3)n2)cc1 (stereo in doubt) [Compound I-62, 2,3,4,5-tetrafluoro-N-(3-((5-fluoro-2-((4-(2-methoxyethoxy)phenyl)amino)pyrimidin-4-yl)amino)phenyl)-6-(methylsulfinyl)benzamide]		
X	X	Y				COCCOc1ccc(Nc2ncc(F)c(Nc3cccc(Nc4c(F)c(F)c(F)c(F)c4S(C)(=O)=O)c3)n2)cc1 [Compound I-64, 5-fluoro-N^2-(4-(2-methoxyethoxy)phenyl)-N^4-(3-((2,3,4,5-tetrafluoro-6-(methylsulfonyl)phenyl)amino)phenyl)pyrimidine-2,4-diamine]		
X	X	Y		X		C[S@+]([O-])c1c(F)c(F)c(F)c(F)c1C(=O)Nc1ncnc2[nH]ccc12 (racemic) [Compound I-46, 2,3,4,5-tetrafluoro-6-(methylsulfinyl)-N-(7H-pyrrolo[2,3-d]pyrimidin-4-yl)benzamide]		
X	X	Y				CN(C)S(=O)(=O)c1c(F)c(F)c(F)c(F)c1C(=O)NCCCn1nc(-c2ccc(Oc3ccccc3)cc2)c2c(N)ncnc21 [Compound I-41, N-(3-(4-amino-3-(4-phenoxyphenyl)-1H-pyrazolo[3,4-d]pyrimidin-1-yl)propyl)-2-(N,N-dimethylsulfamoyl)-3,4,5,6-tetrafluorobenzamide]		
